These results are taken from patent US20230234936A1, “COMPOUND FOR TARGETING AND DEGRADING PROTEIN, AND PREPARATION METHOD THEREFOR AND USE THEREOF” (SHANGHAI LEADINGTAC PHARMACEUTICAL CO., LTD., priority 2020, published 2023).

One test deals with T1, IRAK4 kinase (Homo sapiens, UniProt Q9NWZ3).
T1 sequence (Q9NWZ3 1-460): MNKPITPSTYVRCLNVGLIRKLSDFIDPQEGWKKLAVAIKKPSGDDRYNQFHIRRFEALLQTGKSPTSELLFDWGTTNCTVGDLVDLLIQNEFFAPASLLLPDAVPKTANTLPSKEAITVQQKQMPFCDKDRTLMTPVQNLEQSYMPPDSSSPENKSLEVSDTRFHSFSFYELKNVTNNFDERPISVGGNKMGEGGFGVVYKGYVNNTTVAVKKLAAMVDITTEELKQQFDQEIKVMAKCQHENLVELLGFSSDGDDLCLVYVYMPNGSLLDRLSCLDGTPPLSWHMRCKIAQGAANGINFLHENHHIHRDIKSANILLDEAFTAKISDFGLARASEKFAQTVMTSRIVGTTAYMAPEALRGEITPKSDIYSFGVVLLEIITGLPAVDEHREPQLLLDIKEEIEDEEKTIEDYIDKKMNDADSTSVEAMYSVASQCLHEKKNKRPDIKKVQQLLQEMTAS
Description: IRAK4 kinase activity test (KinEASE-STK S1 HTRF kit). The conditions noted are these: 2.5 nM kinase, 1 μM biotinylated polypeptide substrate, 7 μM ATP, 37° C. 120 min. It is filed as biochemical. The protocol:
KinEASE-STK S1 serine/threonine kinase kit (Cisbio) was used to detect the inhibitory effect of the compound on IRAK4 kinase activity. The specific method was: the compound was dissolved in dimethyl sulfoxide, and then it was diluted with the buffer solution of the kit by equal gradient to make the final concentration range of the tested compound in the reaction system 10000 nM-0.038 nM, then 2.5 nM kinase, 1 μM biotinylated polypeptide substrate and 7 μM adenosine triphosphate (ATP) were added in sequence and incubated at 37° C. for 120 min. Subsequently, anti-phosphorylated serine/threonine antibody coupled with europium element compound and modified XL665 streptavidin were added to the reaction system to terminate the reaction. After incubating at room temperature for 1 h, the fluorescence intensity of each well at the emission wavelength of 620 nm and 665 nm and the excitation wavelength of 337 nm was determined in HTRF mode on the microplate reader EnVision(PerkinElmer), the ratio value was calculated using the formula Ratio=(665 nm/620 nm)×10^4. By comparing with the fluorescence intensity ratio of the control group, the inhibition rate of the compound at each concentration was calculated, and then the IC50 value of the compound was obtained by fitting the nonlinear curve with the logarithmic concentration-inhibition rate by GraphPad Prism 7.
Background: TR-FRET usually uses a lanthanide donor and a delayed reading to cut background.

Test [1] addresses T2, IRAK4 protein in THP-1 cells (Homo sapiens, UniProt Q9NWZ3).
T2 construct: endogenous in cells; host or cells: THP-1
T2 sequence (Q9NWZ3 1-460): T1 sequence (Q9NWZ3 1-460)
Description: Degradation of IRAK4 in THP-1 cells (Western blot). It is filed as cell-based. As to conditions: 24 hours, compound 1-3000 nM. The method, then: Each well of the 24-well cell culture plate was inoculated with 0.95 mL THP-1 cells (stem cell bank of Chinese academy of sciences) with a cell density of 5×10^5 cells/well. The cell plate was placed in a 5% carbon dioxide incubator and cultured overnight at 37° C., then 50 μL compound in dimethyl sulfoxide was added. The final concentration of the compound was in the range of 1-3000 nM. After continuous cultivation for 24 hours, the cells were collected into a 1.5 mL centrifuge tube, centrifuged at 1000 rpm and 4° C. for 5 minutes. Cell precipitation was cleaned twice with 1-DPBS, resuspended cells were lysed with 200 μL lysate (cell lysate was Western and IP cell lysate (Beyotime), supplemented with 1 mM mixture of phenylmethylsulfonyl fluoride and protease inhibitor (Beyotime)), left on ice for 30 minutes, then centrifuged at 14000 g at 4° C. for 10 minutes, and the supernatant was taken to detect IRAK4 protein level by Western blot.
Western blot method: The total protein concentration in the supernatant of cell lysis was determined by BCA protein quantitative kit (Tiangen). According to the concentration of total protein detected by BCA, the supernatant was adjusted to 0.2 μg/μL with PBS and 5× SDS-PAGE protein loading buffer (Beyotime), bathed in water at 100° C. for 10 minutes, then placed in ice bath for 5 minutes, centrifuged at 14000 g and 4° C. for 5 minutes, and then collected as WB loading sample. Prefabricated glue (KeyGEN) was used for protein electrophoresis with a loading amount of 10 μL (total protein 2 μg). After Tris-MOPS-SDS electrophoresis solution (Adamas), 120V constant pressure electrophoresis was performed. After electrophoresis, the protein on the adhesive strip was transferred to PVDF membrane with a constant current of […] for 50 minutes. After the membrane was transferred, the membrane was placed in 1×QuickBlock blocking buffer (Beyotime) and incubated for 30 minutes at room temperature. After blocking, PVDF membranes were incubated with IRAK4 primary antibody (Abcam) overnight at 4°, the membranes were washed with TBST buffer (2.4 g Tris, 8.8 g NaCl, 1.5 mL Tween 20, pH adjusted to 7.4, constant volume to 1 L) for 30 minutes, incubated with secondary antibody (Abcam) for 2 hours at room temperature, finally incubated with Clarity Western ECL Substrate(BIO-RAD) for 5 minutes for luminescence development, chemiluminescence imaging system (Clinx, chemiScope 6200 Touch) for development and protein mapping photography. The protein map was analyzed by Clinx chemiluminescence analysis software for grayscale values. Using the formula: grayscale correction value=(target protein grayscale value/corresponding internal reference grayscale value)×10^3, the grayscale correction value of each sample was calculated. The degradation rate was calculated by comparing with the grayscale correction value of the control group. Furthermore, DC50 and Dmax values of the compound were obtained by the nonlinear curve fitting with the logarithmic concentration-inhibition rate by GraphPad Prism 7.
A general note: In western blotting, separated proteins are transferred to a membrane and probed.

The structures appear in SMILES notation.

In general, IC50 refers to the concentration at which inhibition is half-maximal. Usually DC50 stands for the concentration at which degradation of the target reaches its halfway point. Low values mean a more potent degrader, high ones a less potent degrader. With `COc1cc2nn(C3CCN(CCOCCOc4ccc5c(c4)C(=O)N(C4CCC(=O)NC4=O)C5=O)CC3)cc2cc1NC(=O)c1cccc(C(F)(F)F)n1` (centres unmarked) [Control group 1, N-(2-(1-(2-(2-((2-(2,6-dioxopiperidin-3-yl)-1,3-dioxoisoindol-5-yl)oxy)ethoxy)ethyl)piperidin-4-yl)-6-methoxy-2H-indazol-5-yl)-6-(trifluoromethyl) pyridinecarboxamide, reference compound], 44.2 nM corresponded to half-maximal inhibition against IRAK4 kinase (IC50). The 50% degradation concentration (DC50) in test [1] stood at 38.1 nM.
Usually Dmax stands for the greatest extent of degradation seen. Low values mean shallow degradation, high ones deep degradation. Regarding `COc1cc2nn(C3CCN(CCCN4CCC5(CC4)CCN(C(=O)c4ccc(OC)c(N6CCC(=O)NC6=O)c4)CC5)CC3)cc2cc1NC(=O)c1cccc(C(F)(F)F)n1` [Example 2, N-(2-(1-(3-(9-(3-(2,4-dioxotetrahydropyrimi-din-1 (2H)-yl)-4-methoxyben-zoyl)-3,9-diazaspiro [5.5]undec-3-yl)propyl)piperidin-4-yl)-6-methoxy-2H-indazol-5-yl)-6-(tri-fluoromethyl)-2-pyridine carboxamide], it took 2.9 nM to reach half-maximal inhibition on IRAK4 kinase (IC50). In test [1], this molecule registered a DC50 of 7.4 nM and a Dmax of 99.1%.
On to `COc1cc2nn(C3CCN(CCCCN4CCC5(CC4)CCN(C(=O)c4ccc(OC)c(N6CCC(=O)NC6=O)c4)CC5)CC3)cc2cc1NC(=O)c1cccc(C(F)(F)F)n1` [Example 3], for which the IC50 on IRAK4 kinase worked out at 2.7 nM. In test [1], this molecule yielded a DC50 of 23.1 nM and a Dmax of 90.5%.
The like results for `COc1cc2nn(C3CCN(CCC4CCN(C(=O)c5ccc(OC)c(N6CCC(=O)NC6=O)c5)CC4)CC3)cc2cc1NC(=O)c1cccc(C(F)(F)F)n1` [Example 6, N-(2-(1-(2-(1-(3-(2,4-dioxotetrahydropyrim-idin-1 (2H)-yl)-4-methoxyben-zoyl)piperidin-4-yl)ethyl)piperidin-4-yl)-6-me-thoxy-2H-indazol-5-yl)-6-(trifluoromethyl) pyridinecarboxamide] were, in that order, 7.6 nM, 24 nM and 91.7%.
Taken in the same sequence, the figures for `COc1ccc(C(=O)N2CCC(CCN3CCC(n4cc5cc(NC(=O)c6cccc(C(F)(F)F)n6)c(C(C)(C)O)cc5n4)CC3)CC2)cc1N1CCC(=O)NC1=O` [Example 7, N-(2-(1-(2-(1-(3-(2,4-dioxotetrahydropyrimidin-1 (2H)-yl)-4-methoxybenzoyl)piperidin-4-yl)ethyl)piperidin-4-yl)-6-(2-hydroxyprop-2-yl)-2H-indazol-5-yl)-6-(trifluoromethyl) pyridinecarboxamide] were 5.9 nM, 9.4 nM and 95.5%.
Taken in the same sequence, the figures for `COc1cc2nn(C3CCN(CCCCCN(C)C(=O)c4ccc(OC)c(N5CCC(=O)NC5=O)c4)CC3)cc2cc1NC(=O)c1cccc(C(F)(F)F)n1` [Example 9, N-(2-(1-(5-(3-(2,4-dioxotetrahydropyrimidin-1 (2H)-yl)-4-methoxy-N-methylbenzamido)pentyl)piperidin-4-yl)-6-methoxy-2H-indazol-5-yl)-6-(trifluoromethyl) pyridinecarboxamide] were 18 nM, 16.4 nM and 94.3%.
Take `COc1ccc(C(=O)N2CCC3(CCN(CCN4CCC(n5cc6cc(NC(=O)c7cccc(C(F)(F)F)n7)c(C(C)(C)O)cc6n5)CC4)CC3)CC2)cc1N1CCC(=O)NC1=O` [Example 10, N-(2-(1-(2-(9-(3-(2,4-dioxotetrahydropyrimidin-1 (2H)-yl)-4-methoxybenzoyl)-3,9-diazaspiro[5.5]undec-3-yl)ethyl)piperidin-4-yl)-6-(2-hydroxyprop-2-yl)-2H-indazol-5-yl)-6-(trifluoromethyl) pyridinecarboxamide]: at IRAK4 kinase, the concentration for half-maximal inhibition (IC50) stood at 6.5 nM. In addition, in test [1], the DC50 came to 2.3 nM and the Dmax is 100%.
The like results for `COc1ccc(C(=O)N2CCC3(CCN(CCCN4CCC(n5cc6cc(NC(=O)c7cccc(C(F)(F)F)n7)c(C(C)(C)O)cc6n5)CC4)CC3)CC2)cc1N1CCC(=O)NC1=O` [Example 11] were, in that order, 6 nM, 27.7 nM and 99.6%.
The like results for `COc1ccc(C(=O)N2CCC3(CC2)CN(CCN2CCC(n4cc5cc(NC(=O)c6cccc(C(F)(F)F)n6)c(C(C)(C)O)cc5n4)CC2)C3)cc1N1CCC(=O)NC1=O` [Example 12, N-(2-(1-(2-(7-(3-(2,4-dioxotetrahydropyrimidin-1 (2H)-yl)-4-methoxybenzoyl)-2,7-diazaspiro [3.5]non-2-yl)ethyl)piperidin-4-yl)-6-(2-hydroxyprop-2-yl)-2H-indazol-5-yl)-6-(trifluoro-methyl) pyridinecarboxamide] were, in that order, 7.9 nM, 1.4 nM and 96.9%.
The like results for `COc1cc2nn(C3CCN(CCN4CCC5(CC4)CCN(C(=O)c4ccc(Cl)c(N6CCC(=O)NC6=O)c4)CC5)CC3)cc2cc1NC(=O)c1cccc(C(F)(F)F)n1` [Example 16, N-(2-(1-(2-(9-(4-chloro-3-(2,4-dioxotetrahydro-pyrimidin-1 (2H)-yl)benzoyl)-3,9-diazaspiro[5.5]undec-3-yl)ethyl)piperidin-4-yl)-6-methoxy-2H-in-dazol-5-yl)-6-(tri-fluoromethyl) pyridinecarbox-amide] were, in that order, 9.2 nM, 7.1 nM and 99.4%.
For the molecule `CC(C)(O)c1cc2nn(C3CCN(CCN4CCC5(CC4)CCN(C(=O)c4ccc(Cl)c(N6CCC(=O)NC6=O)c4)CC5)CC3)cc2cc1NC(=O)c1cccc(C(F)(F)F)n1` [Example 17, N-(2-(1-(2-(9-(4-chloro-3-(2,4-dioxotetrahydro-pyrimidin-1 (2H)-yl)benzoyl)-3,9-diazaspiro[5.5]undec-3-yl)ethyl)piperidin-4-yl)-6-(2-hydroxyprop-2-yl)-2H-indazol-5-yl)-6-(trifluoro-methyl) pyridinecarbox-amide], the IC50 at IRAK4 kinase came to 7.9 nM. In test [1], this molecule gave a DC50 of 5.3 nM and a Dmax of 96.9%.
Taken in the same sequence, the figures for `COc1cc2nn(C3CCN(CCCC4CCN(C(=O)c5ccc(OC)c(N6CCC(=O)NC6=O)c5)CC4)CC3)cc2cc1NC(=O)c1cccc(C(F)(F)F)n1` [Example 18, N-(2-(1-(3-(1-(3-(2,4-dioxotetrahydro-pyrimidin-1 (2H)-yl)-4-me-thoxybenzoyl)piperidin-4-yl)propyl)piperidin-4-yl)-6-methoxy-2H-in-dazol-5-yl)-6-(trifluorometh-yl) pyridinecarbox-amide] were 9.6 nM, 7.1 nM and 99.4%.
